Results taken from patent publication US11787785B2 (NOVARTIS AG, priority 2021, dated 2023).
Read-outs that look alike come from different tables or passages of the source.

Target: T1, WIZ protein (HiBit-WIZ fusion protein) (Homo sapiens, UniProt O95785+Q96SW2)
T1 construct: expressed in transfected cells
Test: Quantification of WIZ protein levels in HiBit tag fusion protein assay (WIZ HiBit assay in 293T cells)
Type: cell-based
Design: remaining activity / Dmax: dose or concentration left out as unconfirmed
How it was run: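 HiBit-tagged WIZ (N-terminal tag, HSVTK promoter) stably expressed single-copy in 293T cells; 10-point 1:5 compound series, top 25 μM, ~18 h at 37 °C. Lytic HiBit/LgBit luminescence read; Amax = curve-fitted % WIZ-HiBit remaining at 25 μM, DMSO normalized to 100%.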

[1] = HEK-293T, read-out: % degradation of WIZ (100 − Amax)
[2] = WIZ HiBit assay in 293T cells; 10-point, 5-fold dose response, highest concentration 25 μM, about 18 hours; read-out: WIZ AC50
[3] = HEK-293T, 100 − Amax, at 25 uM; 293T cells; read-out: % degradation of WIZ (100 − Amax)
[4] = HEK-293T, DMSO-normalized, curve-fitted percentage of WIZ-HiBit remaining at 25 uM; 293T cells; read-out: WIZ Amax

T1 sequence (O95785 whole entry, the tested form may be a part): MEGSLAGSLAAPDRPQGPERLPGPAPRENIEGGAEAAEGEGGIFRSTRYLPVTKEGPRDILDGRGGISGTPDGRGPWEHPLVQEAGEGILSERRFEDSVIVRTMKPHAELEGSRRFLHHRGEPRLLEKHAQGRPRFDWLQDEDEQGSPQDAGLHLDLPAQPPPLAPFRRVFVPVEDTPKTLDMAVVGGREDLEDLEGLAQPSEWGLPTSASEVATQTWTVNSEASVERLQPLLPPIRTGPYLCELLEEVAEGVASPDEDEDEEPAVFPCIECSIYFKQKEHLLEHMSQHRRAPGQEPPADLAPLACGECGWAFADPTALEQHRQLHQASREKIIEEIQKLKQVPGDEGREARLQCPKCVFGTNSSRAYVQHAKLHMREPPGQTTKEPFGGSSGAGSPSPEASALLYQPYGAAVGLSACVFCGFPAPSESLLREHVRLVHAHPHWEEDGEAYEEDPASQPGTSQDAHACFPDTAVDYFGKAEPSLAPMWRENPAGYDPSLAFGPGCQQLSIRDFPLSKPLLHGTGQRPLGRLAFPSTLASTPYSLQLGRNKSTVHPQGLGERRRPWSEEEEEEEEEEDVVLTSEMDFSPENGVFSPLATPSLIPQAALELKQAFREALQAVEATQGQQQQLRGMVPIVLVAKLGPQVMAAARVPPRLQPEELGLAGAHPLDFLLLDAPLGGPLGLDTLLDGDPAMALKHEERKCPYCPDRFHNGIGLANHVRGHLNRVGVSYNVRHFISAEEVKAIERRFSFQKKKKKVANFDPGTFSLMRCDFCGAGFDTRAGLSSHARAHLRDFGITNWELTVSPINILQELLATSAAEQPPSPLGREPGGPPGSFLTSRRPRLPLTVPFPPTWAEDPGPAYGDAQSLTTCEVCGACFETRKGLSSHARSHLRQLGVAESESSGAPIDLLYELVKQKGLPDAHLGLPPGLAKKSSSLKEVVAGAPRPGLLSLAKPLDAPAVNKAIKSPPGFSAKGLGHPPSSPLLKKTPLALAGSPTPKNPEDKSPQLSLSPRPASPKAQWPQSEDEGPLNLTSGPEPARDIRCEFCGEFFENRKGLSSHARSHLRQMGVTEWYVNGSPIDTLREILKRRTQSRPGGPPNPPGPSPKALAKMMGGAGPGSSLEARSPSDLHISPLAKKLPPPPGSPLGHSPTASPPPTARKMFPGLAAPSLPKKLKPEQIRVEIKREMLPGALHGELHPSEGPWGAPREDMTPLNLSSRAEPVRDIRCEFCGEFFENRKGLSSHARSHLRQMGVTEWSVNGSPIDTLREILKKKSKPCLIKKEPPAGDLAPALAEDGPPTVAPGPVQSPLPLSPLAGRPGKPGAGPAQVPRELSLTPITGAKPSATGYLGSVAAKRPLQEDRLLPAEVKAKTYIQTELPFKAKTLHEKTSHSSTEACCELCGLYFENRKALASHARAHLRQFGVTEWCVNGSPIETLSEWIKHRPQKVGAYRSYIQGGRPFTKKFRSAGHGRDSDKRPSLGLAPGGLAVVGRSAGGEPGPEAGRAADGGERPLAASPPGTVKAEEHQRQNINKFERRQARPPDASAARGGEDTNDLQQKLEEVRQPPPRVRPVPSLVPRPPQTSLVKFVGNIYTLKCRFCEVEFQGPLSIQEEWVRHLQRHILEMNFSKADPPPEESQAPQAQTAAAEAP
T1 sequence (Q96SW2 whole entry, the tested form may be a part): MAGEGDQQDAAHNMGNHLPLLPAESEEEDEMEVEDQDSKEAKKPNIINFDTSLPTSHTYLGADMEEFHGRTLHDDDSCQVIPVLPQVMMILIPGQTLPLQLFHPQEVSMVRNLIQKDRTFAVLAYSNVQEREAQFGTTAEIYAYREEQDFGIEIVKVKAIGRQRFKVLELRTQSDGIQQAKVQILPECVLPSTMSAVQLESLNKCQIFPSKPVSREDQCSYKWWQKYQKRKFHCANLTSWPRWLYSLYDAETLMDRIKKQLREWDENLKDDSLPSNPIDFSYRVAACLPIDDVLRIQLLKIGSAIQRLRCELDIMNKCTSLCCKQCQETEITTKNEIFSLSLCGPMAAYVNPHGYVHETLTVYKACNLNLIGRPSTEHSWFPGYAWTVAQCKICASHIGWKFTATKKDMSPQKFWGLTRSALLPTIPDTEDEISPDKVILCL
T1 sequence (Q16531 whole entry partner, the tested form may be a part): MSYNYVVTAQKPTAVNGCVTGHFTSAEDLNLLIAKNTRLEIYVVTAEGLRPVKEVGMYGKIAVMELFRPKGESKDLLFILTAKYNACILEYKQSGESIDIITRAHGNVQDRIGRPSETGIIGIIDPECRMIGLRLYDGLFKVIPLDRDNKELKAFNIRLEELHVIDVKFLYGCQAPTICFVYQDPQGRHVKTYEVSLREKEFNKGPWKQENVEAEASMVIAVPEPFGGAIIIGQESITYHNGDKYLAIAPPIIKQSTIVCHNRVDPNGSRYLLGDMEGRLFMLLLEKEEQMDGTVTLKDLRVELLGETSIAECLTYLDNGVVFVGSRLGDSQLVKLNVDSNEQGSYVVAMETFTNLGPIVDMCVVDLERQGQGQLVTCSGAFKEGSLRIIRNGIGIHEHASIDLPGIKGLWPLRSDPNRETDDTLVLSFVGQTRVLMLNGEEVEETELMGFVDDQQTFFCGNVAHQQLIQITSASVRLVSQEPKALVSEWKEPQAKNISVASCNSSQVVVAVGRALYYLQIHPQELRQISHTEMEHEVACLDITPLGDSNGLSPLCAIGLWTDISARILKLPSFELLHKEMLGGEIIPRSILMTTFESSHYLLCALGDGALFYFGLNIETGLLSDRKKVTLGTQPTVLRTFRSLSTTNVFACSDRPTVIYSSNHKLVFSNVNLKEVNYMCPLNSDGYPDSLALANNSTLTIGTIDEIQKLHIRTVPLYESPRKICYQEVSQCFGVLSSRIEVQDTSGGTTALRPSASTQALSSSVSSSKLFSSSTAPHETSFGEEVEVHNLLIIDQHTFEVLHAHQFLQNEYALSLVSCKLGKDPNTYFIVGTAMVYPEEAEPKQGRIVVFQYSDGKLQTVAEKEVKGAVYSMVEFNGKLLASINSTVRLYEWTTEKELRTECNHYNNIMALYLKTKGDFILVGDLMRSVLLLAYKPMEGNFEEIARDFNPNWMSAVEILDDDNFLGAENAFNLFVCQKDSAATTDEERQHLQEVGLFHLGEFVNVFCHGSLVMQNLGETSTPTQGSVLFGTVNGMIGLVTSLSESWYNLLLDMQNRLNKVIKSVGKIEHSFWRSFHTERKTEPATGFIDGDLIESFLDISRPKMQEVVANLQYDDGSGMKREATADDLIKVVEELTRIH

Structure (SMILES)	DC50 [2] [nM]	Dmax at 25 µM [3] [%]	remaining activity at 25 µM [4] [%]	Dmax [1] [%]	remaining activity (HEK-293T, read-out: WIZ Amax) [%]	DC50 (read-out: WIZ AC50; WIZ HiBit assay in 293T cells; 10-point, 5-fold dose response, highest concentration 25 μM, about 18 hours) [nM]
COCC(F)(F)CN1CC[C@@H](Cc2ccn3ncc(N4CCC(=O)NC4=O)c3c2)C[C@@H]1C [Example 278, 1-(5-(((2S,4R)-1-(2,2-difluoro-3-methoxypropyl)-2-methylpiperidin-4-yl)methyl)pyrazolo[1,5-a]pyridin-3-yl)dihydropyrimidine-2,4(1H,3H)-dione]	66			72	28	
C[C@H]1C[C@H](Cc2ccn3ncc(N4CCC(=O)NC4=O)c3c2)CCN1S(=O)(=O)C1CC1 [Example 286]	31	79	20			
C[C@H]1C[C@H](Cc2ccn3ncc(N4CCC(=O)NC4=O)c3c2)CCN1C(=O)C1CCC1 [Example 289]	33	79	21			
C[C@H]1C[C@H](Cc2ccn3ncc(N4CCC(=O)NC4=O)c3c2)CCN1C(=O)C1CCN(C)CC1 [Example 290]	1700	54	46			
C[C@H]1C[C@H](Cc2ccn3ncc(N4CCC(=O)NC4=O)c3c2)CCN1S(=O)(=O)NC1CCCC1 [Example 293]	65	76	24			
O=C1CCN(c2cnn3ccc(CC4CCN(S(=O)(=O)N5CCCC5)CC4)cc23)C(=O)N1 [Example 297, 1-(5-((1-(pyrrolidin-1-ylsulfonyl)piperidin-4-yl)methyl)pyrazolo[1,5-a]pyridin-3-yl)dihydropyrimidine-2,4(1H,3H)-dione]	29	68	32			
O=C1CCN(c2cnn3ccc(CC4CCN(S(=O)(=O)NC5CCCC5)CC4)cc23)C(=O)N1 [Example 298, N-cyclopentyl-4-((3-(2,4-dioxotetrahydropyrimidin-1(2H)-yl)pyrazolo[1,5-a]pyridin-5-yl)methyl)piperidine-1-sulfonamide]	242	51	49			
CCN(C)C(=O)N1CC[C@@H](Cc2ccn3ncc(N4CCC(=O)NC4=O)c3c2)C[C@@H]1C [Example 299, (2S,4R)-4-((3-(2,4-dioxotetrahydropyrimidin-1(2H)-yl)pyrazolo[1,5-a]pyridin-5-yl)methyl)-N-ethyl-N,2-dimethylpiperidine-1-carboxamide]				82	18	9
CO[C@H]1C[C@H](CN2CC[C@@H](Cc3ccn4ncc(N5CCC(=O)NC5=O)c4c3)C[C@@H]2C)C1 [Example 302, 1-(5-(((2S,4R)-1-(((1r,3S)-3-methoxycyclobutyl)methyl)-2-methylpiperidin-4-yl)methyl)pyrazolo[1,5-a]pyridin-3-yl)dihydropyrimidine-2,4(1H,3H)-dione]	42	84	16			
CO[C@H]1C[C@@H](CN2CC[C@@H](Cc3ccn4ncc(N5CCC(=O)NC5=O)c4c3)C[C@@H]2C)C1 [Example 303, 1-(5-(((2S,4R)-1-(((1s,3R)-3-methoxycyclobutyl)methyl)-2-methylpiperidin-4-yl)methyl)pyrazolo[1,5-a]pyridin-3-yl)dihydropyrimidine-2,4(1H,3H)-dione]	46	80	20			
O=C1CCN(c2cnn3ccc(CN4CCN5CCCC[C@@H]5C4)cc23)C(=O)N1 [Example 313, (R)-1-(5-((octahydro-2H-pyrido[1,2-a]pyrazin-2-yl)methyl)pyrazolo[1,5-a]pyridin-3-yl)dihydropyrimidine-2,4(1H,3H)-dione]	85	70	30			
O=C1CCN(c2cnn3ccc(CN4CCN5C(=O)COC[C@H]5C4)cc23)C(=O)N1 [Example 314, (R)-1-(5-((4-oxohexahydropyrazino[2,1-c][1,4]oxazin-8(1H)-yl)methyl)pyrazolo[1,5-a]pyridin-3-yl)dihydropyrimidine-2,4(1H,3H)-dione]	2560	34	66			

Continued, in another order:

DC50 [2] [nM]	Dmax at 25 µM [3] [%]	remaining activity at 25 µM [4] [%]	Structure (SMILES)	Dmax [1] [%]	remaining activity (HEK-293T, read-out: WIZ Amax) [%]	DC50 (read-out: WIZ AC50; WIZ HiBit assay in 293T cells; 10-point, 5-fold dose response, highest concentration 25 μM, about 18 hours) [nM]
26	91	9	C[C@H]1C[C@H](Cc2ccn3ncc(N4CCC(=O)NC4=O)c3c2)CCN1C1COC1 [Example 279, 1-(5-(((2S,4R)-2-methyl-1-(oxetan-3-yl)piperidin-4-yl)methyl)pyrazolo[1,5-a]pyridin-3-yl)dihydropyrimidine-2,4(1H,3H)-dione]			
8	88	12	C[C@H]1C[C@H](Cc2ccn3ncc(N4CCC(=O)NC4=O)c3c2)CCN1C1CCC1 [Example 280, 1-(5-(((2S,4R)-1-cyclobutyl-2-methylpiperidin-4-yl)methyl)pyrazolo[1,5-a]pyridin-3-yl)dihydropyrimidine-2,4(1H,3H)-dione]			
4	83	17	O=C1CCN(c2cnn3ccc(CC4CCN(C5COC5)CC4)cc23)C(=O)N1 [Example 281, 1-(5-((1-(oxetan-3-yl)piperidin-4-yl)methyl)pyrazolo[1,5-a]pyridin-3-yl)dihydropyrimidine-2,4(1H,3H)-dione]			
1	81	19	O=C1CCN(c2cnn3ccc(CC4CCN(C5CCC5)CC4)cc23)C(=O)N1 [Example 282, 1-(5-((1-cyclobutylpiperidin-4-yl)methyl)pyrazolo[1,5-a]pyridin-3-yl)dihydropyrimidine-2,4(1H,3H)-dione]			
18	80	20	C[C@H]1C[C@H](Cc2ccn3ncc(N4CCC(=O)NC4=O)c3c2)CCN1S(C)(=O)=O [Example 284]			
8	80	20	CC(C)C(=O)N1CC[C@@H](Cc2ccn3ncc(N4CCC(=O)NC4=O)c3c2)C[C@@H]1C [Example 288]			
15	83	17	C[C@H]1C[C@H](Cc2ccn3ncc(N4CCC(=O)NC4=O)c3c2)CCN1S(=O)(=O)N1CCCC1 [Example 291, 1-(5-(((2S,4R)-2-methyl-1-(pyrrolidin-1-ylsulfonyl)piperidin-4-yl)methyl)pyrazolo[1,5-a]pyridin-3-yl)dihydropyrimidine-2,4(1H,3H)-dione]			
11	83	17	C[C@H]1C[C@H](Cc2ccn3ncc(N4CCC(=O)NC4=O)c3c2)CCN1S(=O)(=O)N(C)C [Example 292]			
18	81	19	C[C@H]1C[C@H](Cc2ccn3ncc(N4CCC(=O)NC4=O)c3c2)CCN1C(=O)N(C)C [Example 294]			
24	80	20	C[C@H]1C[C@H](Cc2ccn3ncc(N4CCC(=O)NC4=O)c3c2)CCN1C(=O)N1CCCC1 [Example 295]			
3	82	18	CO[C@H]1C[C@@H](CN2CCC(Cc3ccn4ncc(N5CCC(=O)NC5=O)c4c3)CC2)C1 [Example 300, 1-(5-((1-(((1s,3s)-3-methoxycyclobutyl)methyl)piperidin-4-yl)methyl)pyrazolo[1,5-a]pyridin-3-yl)dihydropyrimidine-2,4(1H,3H)-dione]			
2	86	14	O=C1CCN(c2cnn3ccc(CC4CCN(C[C@H]5C[C@@H](F)[C@@H](F)C5)CC4)cc23)C(=O)N1 [Example 301, 1-(5-((1-(((1r,3R,4S)-3,4-difluorocyclopentyl)methyl)piperidin-4-yl)methyl)pyrazolo[1,5-a]pyridin-3-yl)dihydropyrimidine-2,4(1H,3H)-dione]			
2	87	13	C[C@H]1C[C@H](Cc2ccn3ncc(N4CCC(=O)NC4=O)c3c2)CCN1C[C@H]1C[C@@H](F)[C@@H](F)C1 [Example 304, 1-(5-(((2S,4R)-1-(((1r,3R,4S)-3,4-difluorocyclopentyl)methyl)-2-methylpiperidin-4-yl)methyl)pyrazolo[1,5-a]pyridin-3-yl)dihydropyrimidine-2,4(1H,3H)-dione]			
2	85	15	C[C@H]1C[C@H](Cc2ccn3ncc(N4CCC(=O)NC4=O)c3c2)CCN1C[C@H]1CC[C@H](C(F)(F)F)CC1 [Example 305, 1-(5-(((2S,4R)-2-methyl-1-(((1r,4S)-4-(trifluoromethyl)cyclohexyl)methyl)piperidin-4-yl)methyl)pyrazolo[1,5-a]pyridin-3-yl)dihydropyrimidine-2,4(1H,3H)-dione]			
8	84	16	C[C@H]1C[C@H](Cc2ccn3ncc(N4CCC(=O)NC4=O)c3c2)CCN1C[C@@H]1CCC(F)(F)C1 [Example 306, 1-(5-(((2S,4R)-1-(((R)-3,3-difluorocyclopentyl)methyl)-2-methylpiperidin-4-yl)methyl)pyrazolo[1,5-a]pyridin-3-yl)dihydropyrimidine-2,4(1H,3H)-dione]			
6	84	16	C[C@H]1C[C@H](Cc2ccn3ncc(N4CCC(=O)NC4=O)c3c2)CCN1C[C@H]1CCC(F)(F)C1 [Example 307, 1-(5-(((2S,4R)-1-(((S)-3,3-difluorocyclopentyl)methyl)-2-methylpiperidin-4-yl)methyl)pyrazolo[1,5-a]pyridin-3-yl)dihydropyrimidine-2,4(1H,3H)-dione]			
